Legend:
[1] = target: Delta-type opioid receptor (Mus musculus, UniProt P32300); experiment: In vitro inhibitory activity against delta opioid receptor using mouse vas deferens (MVD) assay; assay type: tissue-based
Mu-type opioid receptor = Mu-type opioid receptor (Cavia porcellus, UniProt P97266); experiment: In vitro inhibitory activity against mu opioid receptor using guinea pig ileum (GPI) assay; assay type: tissue-based
Chain of Mu-type opioid receptor (P97266 whole entry): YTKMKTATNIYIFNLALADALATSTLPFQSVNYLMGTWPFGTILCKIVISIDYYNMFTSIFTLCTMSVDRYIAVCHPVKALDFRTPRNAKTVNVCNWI

Chain of Delta-type opioid receptor (P32300 whole entry): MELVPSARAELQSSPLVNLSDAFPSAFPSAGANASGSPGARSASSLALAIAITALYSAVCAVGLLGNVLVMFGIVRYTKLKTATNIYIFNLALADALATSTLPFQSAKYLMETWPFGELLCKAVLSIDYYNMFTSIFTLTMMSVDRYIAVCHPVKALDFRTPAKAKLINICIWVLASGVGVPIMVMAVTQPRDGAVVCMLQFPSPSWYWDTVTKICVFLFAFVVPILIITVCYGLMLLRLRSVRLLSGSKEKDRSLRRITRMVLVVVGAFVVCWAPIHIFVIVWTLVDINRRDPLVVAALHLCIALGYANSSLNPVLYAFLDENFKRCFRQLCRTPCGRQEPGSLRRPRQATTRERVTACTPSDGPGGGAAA

SMILES | IC50 [1] [µM] | IC50 (Mu-type opioid receptor) [µM]
NC(=O)[C@@H]1CCCN1C(=O)[C@H](Cc1ccccc1)NC(=O)[C@@H]1CCCN1C(=O)[C@@H](N)Cc1ccc(O)cc1 [MORPHICEPTIN] | 3.69 | 0.552
CN(C(=O)[C@@H]1CCCN1C(=O)[C@@H](N)Cc1ccc(O)cc1)[C@H](Cc1ccccc1)C(=O)N1CCC[C@@H]1C(N)=O | 565 | 2.66
C[C@H](NC(=O)[C@@H](N)Cc1ccc(O)cc1)C(=O)N[C@@H](Cc1ccccc1)C(=O)N1CCC[C@@H]1C(N)=O | > 100 | –
NC(=O)[C@@H]1CCCN1C(=O)[C@@H](Cc1ccccc1)NC(=O)[C@@H]1CCCN1C(=O)[C@@H](N)Cc1ccc(O)cc1 | 0.594 | 0.109
CN(C(=O)[C@@H]1CCCN1C(=O)[C@@H](N)Cc1ccc(O)cc1)[C@@H](Cc1ccccc1)C(=O)N1CCC[C@@H]1C(N)=O | 1.25 | 0.0207
C[C@@H](C(=O)N[C@@H](Cc1ccccc1)C(=O)N1CCC[C@@H]1C(N)=O)N(C)C(=O)[C@@H](N)Cc1ccc(O)cc1 | 0.202 | 0.0306
CN(C(=O)[C@@H]1CCCN1C(=O)[C@@H](N)Cc1ccc(O)cc1)[C@@H](Cc1ccccc1)C(=O)N1CCC[C@H]1C(N)=O | 1.79 | 0.17
NC(=O)[C@H]1CCCN1C(=O)[C@@H](Cc1ccccc1)NC(=O)[C@@H]1CCCN1C(=O)[C@@H](N)Cc1ccc(O)cc1 | 4.81 | 0.557
NC(=O)[C@H]1CCCN1C(=O)[C@H](Cc1ccccc1)NC(=O)[C@@H]1CCCN1C(=O)[C@@H](N)Cc1ccc(O)cc1 | 1.51 | 0.0287
CN(C(=O)[C@@H]1CCCN1C(=O)[C@@H](N)Cc1ccc(O)cc1)[C@H](Cc1ccccc1)C(=O)N1CCC[C@H]1C(N)=O | > 1000 | > 100
